How the values were obtained:
[1] = test system: 6-OHDA unilaterally lesioned Sprague-Dawley rats; assay: Abnormal involuntary movements (AIMs) test, Examples 1 and 2; conditions: for abnormal involuntary movements (AIMs) score compared to vehicle-treated rats: once daily, scored 60 min after injection, L-dopa 6 mg/kg for 5 days, Sydnocarb 10 and 30 mg/kg, no combination; for effect of test drug on L-dopa-induced AIMs (dyskinesia): L-dopa day 1 (50 mg/kg), L-dopa and test drug day 2
Experimental: Female, Sprague-Dawley rats (Charles River Laboratories) at 7 to 8 weeks of age were used. Animals were assigned randomly to treatment groups. The diet consisted of standard rodent chow and water ad libitum.
6-OHDA was formulated at 5 mg/ml solution in 0.03% ascorbic acid in sterile 0.9% NaCl. Three μL of 6-OHDA was injected into the median forebrain bundle at the following stereotaxic coordinates from bregma: Anteroposterior (A/P) −4.0 mm; mediolateral (M/L) −1.3 mm; ventrodorsal (V/D) −8.0 mm with reference to the top of the skull.
After lesion, rats were allowed to recover for two weeks and then tested for amphetamine-induced rotational activity. Animals were treated with 25 mg/kg amphetamine in saline and recorded in an open-field chamber for 90 minutes. Only rats rotating greater than 4 times per minute were used in efficacy studies. After an additional one week, rats were treated with L-dopa (Isotec IY0630) at various times and measured for the appearance of abnormal involuntary movements (AIMs).
The AIMs test was carried out as follows: 1) weigh rat and inject with L-dopa/benserazide (10 ml/kg, ip); may be a single injection per day over multiple days; administration of a test compound or reference compound may also be included; 2) place rat in empty cage, start video recording; 3) AIMs were assessed in four areas: a) onset of symptoms-latency (seconds) to first visual AIM as defined below; b) 30 minute AIM score; c) 60 minute AIM score; and d) number of left rotations from 30-60 minutes; 4) AIMs were scored and recorded on a scale from 0 to 4: i) absent; ii) slight left forelimb dystonia with grooming; iii) excessive left forelimb dystonia with grooming; iv) left forelimb dystonia with left circling; and v) continuous left circling with or without grooming; 5) record any unusual clinical signs; and 6) after 60 minutes, stop recording, place rat back into home cage.
Sixty minutes after injection, abnormal involuntary movements (AIMs) were scored.
Rats receiving a unilateral 6-OHDA lesion as described above were treated with L-dopa (day 1, 50 mg/kg) and then L-dopa and test drug (day 2, Sydnocarb or Tesofensine).

6-OHDA-lesioned rats = assay: Forelimb adjusting step (FAS) test; type: in vivo, rat
Experimental: In 6-OHDA-lesioned rats, L-dopa administration also elicits a therapeutically beneficial anti-akinetic activity that can be measured by the forelimb adjusting step (FAS) test. To determine the effect of Sydnocarb on L-dopa efficacy on this motor function, 6-OHDA-lesioned rats were treated with L-dopa in combination with Sydnocarb at 10 mg/kg and assessed by the FAS test (see, FIG. 3).
For three consecutive days, the experimenter that performed the study handled the rats so they were familiar with the experimenter's grip: the rat was held with one hand fixing the hindlimbs and slightly raising the hind part above the surface; the other hand fixed the forelimb not to be monitored; the forelimb to be monitored was touching the table; the animal was moved slowly sideways (approx. 5 sec for 90 cm), first in the forehand and then in the backhand; and these steps were repeated for the other forelimb. Forehand is defined as compensating movement toward the body and backhand is defined as compensating movement away from the body.
Each stepping test consisted of six trials for each forepaw, alternating between directions both forehand and backhand as follows: the rat was held in the same position as described above with one paw touching the table; the rat was moved slowly sideways (approx 5 sec for 90 cm), first in the forehand and then in the backhand; the number of adjusting steps for both paws in the forehand and back hand directions of movement were counted and recorded; and the sequence of testing was left paw forehand and backhand adjusting stepping, followed by right paw backhand and forehand directions. The rat was returned to its home cage and the sequence repeated with the second rat in the cage. Five more trials were performed for each rat, placing the rats back in their home cage between trials.
This portion of the experiment was run 3-4 weeks post 6-OHDA lesion, and at least 1 week post rotations testing as follows: prior to the start of dosing, rats were trained and baselines performed as above; preparation of L-dopa with benserazide (concentrations are for i.p. injection, 10 ml/kg): a) L-dopa dissolved in saline at 1.2 mg/ml; and b) benserazide dissolved in saline at 0.4 mg/ml; preparation of sydnocarb 10 mg/kg (concentrations are for i.p. injection, 10 ml/kg): a) sydnocarb dissolved in 0.5% methylcellulose, 0.2% tween 80 in dH2O at 1 mg/ml.
Rats were weighed and injected with L-dopa/benserazide (12 mg/kg/4 mg/kg). FAS were run approximately 60 minutes post L-dopa/benserazide dose. Rats were returned to home cage.
Rats were weighed and injected with sydnocarb 10 mg/kg or vehicle (0.5% methylcellulose, 0.2% tween 80 in dH2O), 30 minutes prior to L-dopa/benserazide dosing. The rest of the study was continued as described in Day 1.
Data were represented as percent by summing steps (forward and backhand) of the lesioned forelimb and dividing by the sum of the steps of the intact forelimb and multiplying by 100, giving a measure of the degree of forepaw disability. A similar calculation was obtained for percent of lesioned forelimb, giving a measure of gain of function.
Sprague-Dawley rats (6/group) were injected unilaterally with 6-OHDA as described above. […] Forepaw adjusting steps were scored and graphed as a percent of the intact (unaffected) forelimb. […] (**p<0.01, p=0.058, One-way ANOVA with post-hoc t-test compared to veh+veh). […] Moreover, Sydnocarb may allow the use of lower therapeutic doses of L-dopa, thereby reducing potential L-dopa-induced side effects.
L-dopa was administered at a dose level of 6 mg/kg (ip) along with benserazide (ip; 2 mg/kg). […] For these 6 mg/kg L-dopa studies, rats were combined from two previous L-dopa/Sydnocarb studies and allowed a 3-week wash out period.
After an additional one week, baseline FAS was measured and rats were treated with L-dopa at 6 mg/kg and Sydnocarb at 3 and 10 mg/kg (ip) for 12 days. […]

[2] = test system: unilaterally lesioned 6-OHDA rats; assay: Axial, limb and orolingual (ALO) AIMs rating, chronic dosing
Experimental: L-dopa was administered at a dose level of 12 mg/kg (ip) along with benserazide (ip; 4 mg/kg). Sydnocarb (10 or 30 mg/kg, ip), amantadine (40 mg/kg ip), or vehicle was administered 30 minutes prior to L-dopa/benserazide. As a “priming” step, L-dopa was administered daily by itself for 1 week after the amphetamine rotation wash-out period. Subsequently, Sydnocarb, along with L-dopa, was dosed daily for an additional 12 days.
After treatment, rats were placed in a confined chamber and monitored for axial, limb, and orolingual AIMs every 20-30 minutes for 2 hours as follows:
For the first minute, AIMs were assessed in three areas: • a. Axial: dystonic posturing of the neck and torso in a twisted manner directed toward the side of the body contralateral to the lesion; • b. Forelimb: rapid, purposeless movements of the forelimb located on the side of the body contralateral to the lesion; and; • c. Orolingual: repetitive openings and closings of the jaw and tongue protrusions occurring at times when the rats are not chewing or knowing on food or other objects.
AIMs were scored and recorded on a scale from 0 to 4: • 0=not present; • 1=present for less than 50% of the Observation period; • 2=present for 50% or more of the observation period; • 3=present for the entire observation period but interrupted by a loud stimulus (a tap on the cage); and • 4=present for the entire observation period and not interrupted by a loud stimulus.
For the second minute, contralateral rotations, defined as complete 360 turns away from the lesioned side of the brain, were tallied.
Ipsilateral rotations were counted as negative numbers and thus, deducted from the total contralateral rotations.
For each AIMs subcategory, the scores were summed for the entire testing period.
After an additional one week, baseline AIMs were measured and rats were treated with L-dopa at 12 mg/kg and Sydnocarb at 10 and 30 mg/kg (ip) for 12 days. On days 1, 8, 10, and 12, AIMs were scored every 20 minutes for 2 hours and graphed as a sum of axial, limb, and orolingual (ALO) abnormal movements (FIG. 6).
Sydnocarb was administered at 3 mg/kg (ip) to 6-OHDA-lesioned rats once per day for 12 days.
Sprague-Dawley rats (3/group) were injected unilaterally with 6-OHDA as described herein. Two weeks later, rats were tested for amphetamine-induced rotation activity to verify the dopaminergic lesion. After an additional six weeks, baseline AIMs were measured and rats were treated with Sydnocarb at 3 mg/kg (ip) for 12 days. No L-dopa was administered in this experiment. On days 5 and 12, AIMs were scored at 30, 90, and 150 minutes post-dose and graphed as a sum of axial, limb, and orolingual (ALO) abnormal movements (FIG. 11).

[3] = test system: C57Bl/6 mice treated with MPTP; assay: Open Field Activity assay after MPTP; type: in vivo, mouse; conditions: compound 30 min prior to MPTP (3x20 mg/kg) and daily for 4 days; measured day 5, 30 min open field
Experimental: An Open Field Activity assay was performed in which locomotor and sensorimotor parameters were evaluated in an automated open-field apparatus. 1-methyl-4-phenyl-1,2,3,6-tetrahydropyridine (MPTP) injections (3×20 mg/kg) were performed in C57Bl/6 mice at two-hour intervals (final dose of MPTP=60 mg/kg). Mice were treated with the compound 30 minutes prior to MPTP and daily for 4 days. Locomotor activity was monitored on day 5, thirty minutes after administration of test compound. Locomotor activity was measured in an automated open-field (MedAssociates) for 30 minutes. The following parameters were measured: 1) horizontal distance traveled, 2) number of rearing events and 3) stereotypic behavior.

C57Bl/6 mice = assay: Mouse electroencephalogram, time awake; type: in vivo; conditions: intraperitoneal injection 4 hours after lights-on
Experimental: Electroencephalographic data were obtained in C57Bl/6 mice chronically implanted with electrodes to monitor brain and muscular activity. The percent time spent awake was evaluated following intraperitoneal injections of Sydnocarb 4 hours after lights-on, when mice are predominantly sleeping.

DA transporter (DAT) = DA transporter (DAT) (Homo sapiens, UniProt Q01959); conditions: Gruner et al. 2011; cited from earlier work
DA transporter (DAT), sequence (Q01959 whole entry, species assumed): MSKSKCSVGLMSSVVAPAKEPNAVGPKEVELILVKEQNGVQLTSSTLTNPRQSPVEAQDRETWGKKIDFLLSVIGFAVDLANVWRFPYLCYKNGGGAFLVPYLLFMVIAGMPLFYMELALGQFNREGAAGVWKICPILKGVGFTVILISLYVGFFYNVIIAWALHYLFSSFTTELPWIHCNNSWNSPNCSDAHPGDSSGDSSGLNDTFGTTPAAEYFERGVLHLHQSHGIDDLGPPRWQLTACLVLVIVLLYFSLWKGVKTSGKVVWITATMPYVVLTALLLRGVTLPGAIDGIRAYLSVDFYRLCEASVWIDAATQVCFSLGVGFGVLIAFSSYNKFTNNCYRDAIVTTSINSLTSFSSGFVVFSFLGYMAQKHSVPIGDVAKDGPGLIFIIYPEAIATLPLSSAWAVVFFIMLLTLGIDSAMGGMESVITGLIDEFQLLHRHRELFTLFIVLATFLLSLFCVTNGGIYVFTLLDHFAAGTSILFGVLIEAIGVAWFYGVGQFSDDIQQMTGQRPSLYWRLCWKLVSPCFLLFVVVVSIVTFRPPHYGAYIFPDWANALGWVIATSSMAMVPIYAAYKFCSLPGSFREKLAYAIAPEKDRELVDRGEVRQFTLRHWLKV

noradrenaline reuptake = conditions: rat synaptosomes; Erdö et al. 1981; cited from earlier work
[4] = humans and animals; cited from earlier work
[5] = Gruner et al. 2011; cited from earlier work
extracellular DA = conditions: rat striatum and nucleus accumbens; cited from earlier work
[6] = equimolar doses, cited from earlier work
[7] = humans; cited from earlier work
[8] = L-dopa 12 mg/kg and Sydnocarb 10 mg/kg ip (day 2)

Structure (SMILES): N[C@@H](Cc1ccc(O)c(O)c1)C(=O)O [L-dopa]
- abnormal involuntary movements (AIMs) score compared to vehicle-treated rats [1]: significantly higher AIMs scores
- abnormal involuntary movements (AIMs) caused by L-dopa ([1]; two-day treatment with L-dopa, 50 mg/kg): increase in abnormal involuntary movements
- FAS, % affected paw compared to baseline (6-OHDA-lesioned rats; L-dopa 6 mg/kg ip alone, 12 days): slight increase in adjusting steps compared to baseline
- forepaw adjusting steps, percent of the intact forelimb, compared to vehicle (6-OHDA-lesioned rats; L-dopa 12 mg/kg alone): slight increase in steps compared to vehicle
- sum of ALO AIMs compared to baseline ([2]; L-dopa 12 mg/kg ip with benserazide, chronic dosing): increase in AIMS compared to baseline

Structure (SMILES): CC(Cc1ccccc1)[n+]1cc([N-]C(=O)Nc2ccccc2)on1 (stereo not drawn) [Sydnocarb, 3-(β-phenylisopropyl)-N-phenylcarbamoylsydnonimine]
- effect of test drug on L-dopa-induced AIMs (dyskinesia) [1]: ameliorates L-dopa-induced dyskinesia
- reduction of L-dopa-induced AIMs ([1]; Sydnocarb administered 30 min after L-dopa, seen 30 and 60 minutes after L-dopa administration): approximately 40%
- abnormal involuntary movements (AIMs) score compared to vehicle-treated rats [1]: did not cause significant AIMs
- FAS adjusting steps compared to vehicle (6-OHDA-lesioned rats; L-dopa 6 mg/kg and Sydnocarb 3 mg/kg ip for 12 days, days 5 and 12): increase in adjusting steps compared to vehicle
- FAS adjusting steps compared to vehicle (L-dopa alone) (6-OHDA-lesioned rats; L-dopa 6 mg/kg and Sydnocarb 10 mg/kg po for 12 days, day 12, 60 min post-dose): slight increase, and importantly no decrease, in adjusting steps
- forepaw adjusting steps as percent of the intact forelimb (6-OHDA-lesioned rats; [8]): ~100%
- forepaw adjusting steps, percent of the intact forelimb, compared to vehicle (6-OHDA-lesioned rats; [8]): significant increase
- adjusting step scores compared to L-dopa alone (6-OHDA-lesioned rats; Sydnocarb 10 mg/kg with L-dopa): increased scores compared to L-dopa alone
- vertical activity (rearing events) [3]: prevent decrease in vertical activity
- percent time spent awake compared to vehicle controls (C57Bl/6 mice): dose-dependently increased time awake
- DAT activity (DA transporter (DAT)): has DAT activity
- noradrenaline reuptake (noradrenaline reuptake): attenuates noradrenaline reuptake
- metabolite formed [4]: metabolized to D-amphetamine
- rebound hypersomnolence [5]: lacks the rebound hypersomnolence
- extracellular DA increase compared with D-AMPH (extracellular DA): slower and more gradual increase in extracellular DA
- markers of neurotoxicity relative to D-AMPH ([6]; DA depletion, reactive oxygen species, lipid peroxidation): smaller changes in the markers of neurotoxicity
- hyperlocomotion and stereotypy relative to D-AMPH [6]: less hyperlocomotion and stereotypy
- toxic episodes and abuse potential [7]: neither significant toxic episodes nor abuse potential have been reported
- sum of ALO AIMs compared to vehicle ([2]; L-dopa 12 mg/kg and Sydnocarb 10 and 30 mg/kg ip for 12 days, days 1, 8, 10, 12): decrease in AIMs compared to vehicle
- sum of ALO AIMs compared to vehicle ([2]; L-dopa 12 mg/kg and Sydnocarb 10 and 30 mg/kg po for 12 days, days 5 and 12): decrease in AIMs compared to vehicle
- AIMs scores relative to L-dopa treatment ([2]; Sydnocarb 3 mg/kg ip for 12 days, no L-dopa): approximately 20 times lower
- sum of ALO AIMs, Sydnocarb alone ([2]; Sydnocarb 3 mg/kg ip for 12 days, no L-dopa, days 5 and 12): nominal AIMs

Structure (SMILES): CCOC[C@@H]1[C@@H](c2ccc(Cl)c(Cl)c2)C[C@@H]2CC[C@H]1N2C [Tesofensine]
- effect of test drug on L-dopa-induced AIMs (dyskinesia) [1]: had no affect on AIMs
- vertical activity (rearing events) [3]: prevent decrease in vertical activity
